# Data taken from patent US11578087B2, “Oxaborole esters and uses thereof” (priority 2016, dated 2023).
# Experiments:
# [1] = tested on: T. cruzi amastigote (Td Tomato-modified) in Vero cells; assay: In vitro IC50 measurement of T. cruzi amastigote killing using Td Tomato-modified T. cruzi; type: cell-based; conditions: Trypanosoma cruzi, 72 h, fluorescence, read-out: IC50: I Org. amastigote Growth T. cruzi 3 d
# Procedure, shortened: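 Vero cells infected with Td Tomato-expressing T. cruzi, treated with compound at 5 uM to 5 nM final, incubated 72 h at 37 °C. Fluorescence (Ex 544/Em 612 nm) read at Day 0 and Day 3, Day 0 subtracted; IC50 and IC90 by nonlinear regression.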
# [2] = tested on: IL3000 T. congolense (drug sensitive) strain; assay: In vitro Alamar Blue 72 h drug sensitivity assay for T. congolense; type: cell-based, Trypanosoma congolense; conditions: Trypanosoma congolense, 72 h, bloodstream form, 69 h + 3 h Resazurin, 34° C., read-out: IC50: I Org. Growth T. congolense 3 d
# Procedure, shortened: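 Bloodstream-form trypanosomes in HMI medium with 20% bovine serum were exposed to compounds for 69 h at 34° C, 5% CO2, then resazurin for another 3 h. Fluorescence read at ex 536/em 588 nm; IC50 from 11-point sigmoidal dose-response curves, at least three independent runs.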
SMILES,IC50 [1],IC50 [2]
"COCCOC(=O)[C@@H](NC(=O)c1ccc2c(c1C)B(O)OC2)C(C)C [Example 6-107, 2-Methoxyethyl (1-hydroxy-7-methyl-1,3-dihydrobenzo[c][1,2]oxaborole-6-carbonyl)-L-valinate]",≤ 20 nM,< 0.5 nM
"Cc1c(C(=O)N[C@H](C(=O)OCc2cccc(C#N)c2)C(C)C)ccc2c1B(O)OC2 [Example 6-047, 3-Cyanobenzyl (1-hydroxy-7-methyl-1,3-dihydrobenzo[c][1,2]oxaborole-6-carbonyl)-L-valinate]",≤ 20 nM,< 0.5 nM
"Cc1c(C(=O)N[C@H](C(=O)OCc2ccc(CN3CCCC3)cc2)C(C)C)ccc2c1B(O)OC2 [Example 6-131, 4-(Pyrrolidin-1-ylmethyl)benzyl (1-hydroxy-7-methyl-1,3-dihydrobenzo[c][1,2]oxaborole-6-carbonyl)-L-valinate]",21 to 999 nM,< 0.5 nM
"Cc1c(C(=O)N[C@H](C(=O)OCc2cnccn2)C(C)C)ccc2c1B(O)OC2 [Example 6-186, Pyrazin-2-ylmethyl (1-hydroxy-7-methyl-1,3-dihydrobenzo[c][1,2]oxaborole-6-carbonyl)-L-valinate]",21 to 999 nM,0.51 to 9.99 nM
"Cc1c(C(=O)N[C@H](C(=O)O[C@@H]2CCOC2)C(C)C)ccc2c1B(O)OC2 [Example 6-141, (R)-Tetrahydrofuran-3-yl (1-hydroxy-7-methyl-1,3-dihydrobenzo[c][1,2]oxaborole-6-carbonyl)-L-valinate]",21 to 999 nM,< 0.5 nM
"Cc1c(C(=O)N[C@H](C(=O)OCc2ccc(C(=O)NCCN(C)C)cc2)C(C)C)ccc2c1B(O)OC2 [Example 6-103, 4-((2-(Dimethylamino)ethyl)carbamoyl)benzyl (1-hydroxy-7-methyl-1,3-dihydrobenzo[c][1,2]oxaborole-6-carbonyl)-L-valinate]",≥ 1000 nM,10 to 5000 nM
"Cc1c(C(=O)N[C@H](C(=O)OCc2ccc(S(C)(=O)=O)c(CN(C)C)c2)C(C)C)ccc2c1B(O)OC2 [Example 6-110, 3-((Dimethylamino)methyl)-4-(methylsulfonyl)benzyl (1-hydroxy-7-methyl-1,3-dihydrobenzo[c][1,2]oxaborole-6-carbonyl)-L-valinate]",21 to 999 nM,0.51 to 9.99 nM
"Cc1c(C(=O)N[C@H](C(=O)OCc2cnc3ccccc3n2)C(C)C)ccc2c1B(O)OC2 [Example 6-123, Quinoxalin-2-ylmethyl (1-hydroxy-7-methyl-1,3-dihydrobenzo[c][1,2]oxaborole-6-carbonyl)-L-valinate]",≤ 20 nM,< 0.5 nM
"Cc1c(C(=O)N[C@H](C(=O)OCCN2CCCC2=O)C(C)C)ccc2c1B(O)OC2 [Example 6-212, 2-(2-oxopyrrolidin-1-yl)ethyl (1-hydroxy-7-methyl-1,3-dihydrobenzo[c][1,2]oxaborole-6-carbonyl)-L-valinate]",21 to 999 nM,10 to 5000 nM
"Cc1c(C(=O)N[C@H](C(=O)OCc2ccc(F)c(F)c2)C(C)(C)O)ccc2c1B(O)OC2 [Example 6-098, 3,4-Difluorobenzyl (S)-3-hydroxy-2-(1-hydroxy-7-methyl-1,3-dihydrobenzo[c][1,2]oxaborole-6-carboxamido)-3-methylbutanoate]",≤ 20 nM,< 0.5 nM
"CC(C)[C@H](NC(=O)c1ccc2c(c1F)B(O)OC2)C(=O)OCc1ccccc1 [Example 6-035, Benzyl (7-fluoro-1-hydroxy-1,3-dihydrobenzo[c][1,2]oxaborole-6-carbonyl)-L-valinate]",≥ 1000 nM,10 to 5000 nM
"Cc1c(C(=O)N[C@H](C(=O)OCc2ccccc2)C(C)C)ccc2c1B(O)OC2 [Example 6-038, Benzyl (1-hydroxy-7-methyl-1,3-dihydrobenzo[c][1,2]oxaborole-6-carbonyl)-L-valinate]",≤ 20 nM,< 0.5 nM
"Cc1c(C(=O)N[C@H](C(=O)OCc2ccncc2)C(C)C)ccc2c1B(O)OC2 [Example 6-190, Pyridin-4-ylmethyl (1-hydroxy-7-methyl-1,3-dihydrobenzo[c][1,2]oxaborole-6-carbonyl)-L-valinate]",21 to 999 nM,0.51 to 9.99 nM
"Cc1c(C(=O)N[C@H](C(=O)OCc2ccc(F)c(OCCN3CCCC3)c2)C(C)C)ccc2c1B(O)OC2 [Example 6-245, 4-Fluoro-3-(2-(pyrrolidin-1-yl)ethoxy)benzyl (1-hydroxy-7-methyl-1,3-dihydrobenzo[c][1,2]oxaborole-6-carbonyl)-L-valinate]",21 to 999 nM,0.51 to 9.99 nM
"Cc1c(C(=O)N[C@H](C(=O)OCc2ccc(S(C)(=O)=O)cc2)C(C)C)ccc2c1B(O)OC2 [Example 6-056, 4-(Methylsulfonyl)benzyl (1-hydroxy-7-methyl-1,3-dihydrobenzo[c][1,2]oxaborole-6-carbonyl)-L-valinate]",21 to 999 nM,0.51 to 9.99 nM
"Cc1c(C(=O)N[C@H](C(=O)OCCN2CCCC2)C(C)C)ccc2c1B(O)OC2 [Example 6-095, 2-(Pyrrolidin-1-yl)ethyl (1-hydroxy-7-methyl-1,3-dihydrobenzo[c][1,2]oxaborole-6-carbonyl)-L-valinate]",≥ 1000 nM,0.51 to 9.99 nM
"Cc1c(C(=O)N[C@H](C(=O)OCc2ccc(OC(F)(F)F)cc2)C(C)C)ccc2c1B(O)OC2 [Example 6-054, 4-Trifluoromethoxybenzyl (1-hydroxy-7-methyl-1,3-dihydrobenzo[c][1,2]oxaborole-6-carbonyl)-L-valinate]",≤ 20 nM,< 0.5 nM
"Cc1c(C(=O)N[C@H](C(=O)OCc2ccc(F)cc2)C2CC2)ccc2c1B(O)OC2 [Example 6-050, 4-Fluorobenzyl (S)-2-cyclopropyl-2-(1-hydroxy-7-methyl-1,3-dihydrobenzo[c][1,2]oxaborole-6-carboxamido)acetate]",21 to 999 nM,< 0.5 nM
"Cc1c(C(=O)NC2(C(=O)OCCN3CCOCC3)COC2)ccc2c1B(O)OC2 [Example 6-222, 2-morpholinoethyl 3-(1-hydroxy-7-methyl-1,3-dihydrobenzo[c][1,2]oxaborole-6-carboxamido)oxetane-3-carboxylate]",≥ 1000 nM,10 to 5000 nM
"COCN(COC)S(=O)(=O)c1ccc(COC(=O)[C@@H](NC(=O)c2ccc3c(c2C)B(O)OC3)C(C)C)cc1 [Example 6-109, 4-(N,N-bis(methoxymethyl)sulfamoyl)benzyl (1-hydroxy-7-methyl-1,3-dihydrobenzo[c][1,2]oxaborole-6-carbonyl)-L-valinate]",21 to 999 nM,0.51 to 9.99 nM
"COCC1(COC(=O)[C@@H](NC(=O)c2ccc3c(c2C)B(O)OC3)C(C)C)CCOCC1 [Example 6-152, (4-(Methoxymethyl)tetrahydro-2H-pyran-4-yl)methyl (1-hydroxy-7-methyl-1,3-dihydrobenzo[c][1,2]oxaborole-6-carbonyl)-L-valinate]",21 to 999 nM,< 0.5 nM
"Cc1c(C(=O)N[C@H](C(=O)OCc2ccnc(C(F)(F)F)n2)C(C)C)ccc2c1B(O)OC2 [Example 6-160, (2-(Trifluoromethyl)pyrimidin-4-yl)methyl (1-hydroxy-7-methyl-1,3-dihydrobenzo[c][1,2]oxaborole-6-carbonyl)-L-valinate]",21 to 999 nM,< 0.5 nM
"O=C(N[C@@H](CO)C(=O)OCc1ccccc1)c1ccc2c(c1)B(O)OC2 [Example 6-007, Benzyl (1-hydroxy-1,3-dihydrobenzo[c][1,2]oxaborole-6-carbonyl)-L-serinate]",≥ 1000 nM,10 to 5000 nM
"Cc1c(C(=O)N[C@H](C(=O)OCc2cccc(CN3CCN(C)CC3)c2)C(C)C)ccc2c1B(O)OC2 [Example 6-082, 3-((4-Methylpiperazin-1-yl)methyl)benzyl (1-hydroxy-7-methyl-1,3-dihydrobenzo[c][1,2]oxaborole-6-carbonyl)-L-valinate]",21 to 999 nM,0.51 to 9.99 nM
"Cc1c(C(=O)N[C@H](C(=O)OCCN2CCCOCC2)C(C)C)ccc2c1B(O)OC2 [Example 6-214, 2-(1,4-oxazepan-4-yl)ethyl (1-hydroxy-7-methyl-1,3-dihydrobenzo[c][1,2]oxaborole-6-carbonyl)-L-valinate]",≥ 1000 nM,0.51 to 9.99 nM
"Cc1c(C(=O)N[C@H](C(=O)OCc2cccc(CN3CCCC3)c2)C(C)C)ccc2c1B(O)OC2 [Example 6-113, 3-(Pyrrolidin-1-ylmethyl)benzyl (1-hydroxy-7-methyl-1,3-dihydrobenzo[c][1,2]oxaborole-6-carbonyl)-L-valinate]",≤ 20 nM,< 0.5 nM
"CC(C)[C@H](NC(=O)c1ccc2c(c1C(F)(F)F)B(O)OC2)C(=O)OCc1ccccc1 [Example 6-071, Benzyl (1-hydroxy-7-(trifluoromethyl)-1,3-dihydrobenzo[c][1,2]oxaborole-6-carbonyl)-L-valinate]",21 to 999 nM,10 to 5000 nM
"Cc1c(C(=O)N[C@H](C(=O)OCC2COCCOC2)C(C)C)ccc2c1B(O)OC2 [Example 6-157, (1,4-Dioxepan-6-yl)methyl (1-hydroxy-7-methyl-1,3-dihydrobenzo[c][1,2]oxaborole-6-carbonyl)-L-valinate]",21 to 999 nM,< 0.5 nM
"COCC(COC)OC(=O)[C@@H](NC(=O)c1ccc2c(c1C)B(O)OC2)C(C)C [Example 6-139, 1,3-Dimethoxypropan-2-yl (1-hydroxy-7-methyl-1,3-dihydrobenzo[c][1,2]oxaborole-6-carbonyl)-L-valinate]",21 to 999 nM,10 to 5000 nM
"Cc1c(C(=O)N[C@H](C(=O)OCc2cccc(N3CCN(C)CC3)c2)C(C)C)ccc2c1B(O)OC2 [Example 6-072, 3-(4-Methylpiperazin-1-yl)benzyl (1-hydroxy-7-methyl-1,3-dihydrobenzo[c][1,2]oxaborole-6-carbonyl)-L-valinate]",≤ 20 nM,< 0.5 nM
